Patent publication US10953027B2, “Active agents and methods of their use for the treatment of metabolic disorders and nonalcoholic fatty liver disease” (Flagship Pioneering Innovations V, Inc., priority 2018, dated 2021)

Legend:
Type in all cases: cell-based
naïve CD4+ T cells = test: Human regulatory T cell differentiation assay; conditions: 6 days
Experimental: Peripheral blood mononuclear cells (PBMCs) from whole blood donated by health volunteers were separated by Ficoll-Paque gradient centrifugation and naïve CD4^+ T cells were subsequently isolated using magnet beads (EasySep™ Human Naïve CD4^+ T Cell Isolation Kit, Cambridge, Mass.). For regulatory T cell (Treg) differentiation assay, naïve CD4^+ T cells were cultured (1-10×10^4 cells) in CTS OpTmizer medium for 6 days and stimulated with 5 ng/ml TGF-β, 100 U/ml IL-2, and ImmunoCult™ Human […] T Cell Activator; Stemcell #10990) with/without our Compounds. Cell viability was determined using a viability dye (eBioscience Fixable Viability Dye eFluor 780: ThermoFisher 65-0865-14) at 1:500 dilution. The cells were gated for Treg, defined as Live, CD11c^−, CD14^−, CD19^−, CD8^−, CD4^+, CD3^+, CD25^+, FOXP3^+. Percent (%) Tregs were calculated as percentage of CD4^+, CD25^+, FOXP3^+ cells over total CD4^+ T cells. Statistical analysis was performed with GraphPad Prism Software Using One-Way ANOVA.

Caco-2 colonocytes = test: Human Caco-2 barrier integrity assay (TEER); conditions: 48 hours
Experimental: Caco-2 colonocytes were maintained at 37° C. and 5% CO2 in Dulbecco's Modified Eagle Medium (DMEM) and supplemented with 10% FBS, 1% NEAA, 1% penicillin-streptomycin. At 70-80% confluency, cells were trypsinized and seeded in 0.4 cm^2 transwell collagen I coated membranes with supplemented DMEM in both apical and basolateral compartments. Cells were seeded at a density of 200,000 cells per well and maintained for 10 days to form a polarized barrier with a TransEpithelial Electrial Resistance (TEER) reading above 1000Ω. On the first day of the assay, initial TEER readings were taken and cytokines were added to the basolateral media (50 ng/mL TNFα, 25 ng/mL IFNγ and 10 ng/mL IL-1β) to reduce barrier integrity while compounds diluted in (dimethylsulfoxide) DMSO were added to the apical media in triplicate. After 48 hours, TEER readings were taken again and viability was measured by CellTiter 96® AQueous One Solution Cell Proliferation Assay (Promega). The percent change in TEER over the 48 hours was determined and normalized to the 0.1% DMSO control (Table 6).

[1] = test system: Human Peripheral Blood Monocytes (PBMCs); test: Cytokine release from human PBMCs; conditions: 100 μM, LPS, 24 hours
Experimental: Human donor blood (8 mL) was collected in sodium citrate CPT tubes and centrifuged at 1,600×g for 20 minutes at room temperature. […] PBMCs samples were centrifuged at 400×g for 10 minutes at 10° C. […] PBMCs were filtered through a 70 micron mesh to remove any cellular debris. […] PBMCs in a 96-well plate were rested for 30 minutes in a 37° C., 5% CO2 incubator, then subsequently treated with 10 μl of indicated compound. After 2 hours 10 μL of LPS (O111:B4) 1 mg/mL was added to test wells. After 24 hours of incubation at 37° C., 5% CO2, 100 μL of cell supernatant was collected and transferred to a 96-well plate (non-tissue treated, flat bottom). The plate was centrifuged at 350×g for 5 minutes at room temperature, and then the clear supernatant transferred to a new 96-well plate (non-tissue treated, flat bottom). The remaining cells were tested for viability using CellTiter-Glo® Luminescent Cell Viability Assay (Promega). The supernatant was analyzed for TNFα, IL-6 and IL-1β (kit LXSAHM-03; R&D Systems), using Luminex Immunoassay Technology (MAGPIX System). Cytokine levels of LPS treated DMSO control samples were set to 100%, and compound treated samples were expressed relative to this (Table 13).

Mouse myocyte = Mouse myocyte lipolysis assay; conditions: Mus musculus, read-out: Free glycerol % DMSO
Experimental: Cells were obtained from ATCC and cultured in Dulbecco's Modified Eagle's medium (DMEM) containing 20% fetal bovine serum and 1% penicillin/streptomycin at 37° C. in an incubator with 5% CO2. Once the cells became confluent, they were seeded into a tissue culture treated 96 well plate. The next day, the medium containing DMEM with 2% equine serum was used to start differentiation. Once cells were fully differentiated, they were treated with indicated compounds.

[2] = test system: Primary human subcutaneous adipocytes; test: Glucose uptake in human subcutaneous adipocytes, insulin resistant model
Experimental: As described above, primary human subcutaneous adipocytes were differentiated for two weeks prior to treatment. To induce an insulin resistant state, cells were treated in serum free Dulbecco's Modified Eagle Medium (high glucose) and […] for 24 hours. Cells were simultaneously treated with compounds diluted in DMSO for 24 hours. As described above, after 24 hours, media was exchanged for assay buffer and the compounds were added again but in the presence of approximately 1 nM insulin. Cells were washed and lysed after 2 hours and glucose uptake was measured. […] Statistical changes in glucose uptake were determined by way ANOVA and compared to DMSO.

Mouse 3T3-L1 cells = test: Mouse adipocyte lipolysis assay; conditions: Mus musculus, 3T3-L1, 24 hours, read-out: Lipolysis Free Fatty Acids % DMSO
Experimental: Once the cells became confluent, they were seeded into a tissue culture treated 96 well plate. […] After 14 days of differentiation, cells were treated with compounds of interest. After 24 hours post-treatment, the cell viability was assessed using CellTiter-Glo Luminescent Cell Viability Assay from Promega, and lipolysis was determined using Lipolysis Assay Kit from ZenBio.

[3] = test system: Primary human subcutaneous adipocytes; test: Glucose uptake in human subcutaneous adipocytes, insulin sensitive model
Experimental: Primary human subcutaneous adipocytes (Zen Bio, Research Triangle Park, N.C.) were differentiated for two weeks prior to treatment. Cells were treated with indicated compounds diluted in (dimethyl-sulfoxide) DMSO in serum free medium for 24 hours in triplicate. After 24 hours, media was exchanged for assay buffer and the compounds were added again but in the presence of approximately 1 nM insulin. Glucose uptake was initiated with the addition of a cocktail containing 2-deoxyglucose and ^3H-2-deoxyglucose and allowed to incubate for 2 hours. Cells were washed, lysed and glucose uptake was measured as counts per well. As an assay control, 100 nM of insulin was used during the 2 hours of glucose uptake. […] Statistical changes in glucose uptake were determined by way ANOVA and compared to DMSO.

Oc1ccc(C=Cc2cc(O)cc(O)c2)cc1 [Resveratrol, resveratrol]
Cell viability % DMSO (naïve CD4+ T cells; 1 uM): − (<90%: −)
Cell viability % DMSO (naïve CD4+ T cells; 10 uM): − (<90%: −)
activity at 1 µM (naïve CD4+ T cells; Homo sapiens, CD4+ T, 144 h, 1 uM, read-out: Treg induction % DMSO): 110 to 130%
activity at 10 µM (naïve CD4+ T cells; Homo sapiens, CD4+ T, 144 h, 10 uM, read-out: Treg induction % DMSO): 110 to 130%
% Change in TEER from DMSO (Caco-2 colonocytes; 10 μM + cytokines): − (≤125%: −)
% Change in TEER from DMSO (Caco-2 colonocytes; 100 μM + cytokines): +++ (200%>: +++)
IL6 % DMSO control [1]: + ((+) 50%≥ <90% DMSO)
ILβ % DMSO control [1]: = ((=) 90%≥ <110% DMSO)
TNFα % of DMSO control [1]: + ((+) 50%≥ <90% DMSO)
activity at 1 µM (Mouse myocyte; 1 μM): 70 to 90%
activity at 10 µM (Mouse myocyte; 10 μM): 50 to 70%
Insulin Resistant % DMSO (glucose uptake) ([2]; 10 μM): = (50%> ≤110%: =)
Insulin Resistant % DMSO (glucose uptake) ([2]; 100 μM): − (<50%: −)
activity at 1 µM (Mouse 3T3-L1 cells; 1 μM): 70 to 90%
activity at 10 µM (Mouse 3T3-L1 cells; 10 μM): 90 to 100%
Insulin Sensitive % DMSO (glucose uptake) ([3]; 10 μM): = (50%> ≤110%: =)
Insulin Sensitive % DMSO (glucose uptake) ([3]; 100 μM): − (<50%: −)

CCC(=O)O [Propionate, propionate]
% Change in TEER from DMSO (Caco-2 colonocytes; 1 mM + cytokines): + (125%> ≤150%: +)
% Change in TEER from DMSO (Caco-2 colonocytes; 3 mM + cytokines): ++ (150%≥ ≤200%: ++)
IL6 % DMSO control [1]: + ((+) 50%≥ <90% DMSO)
ILβ % DMSO control [1]: + ((+) 50%≥ <90% DMSO)
TNFα % of DMSO control [1]: + ((+) 50%≥ <90% DMSO)
Insulin Resistant % DMSO (glucose uptake) ([2]; 3 mM): = (50%> ≤110%: =)
Insulin Sensitive % DMSO (glucose uptake) ([3]; 3 mM): = (50%> ≤110%: =)

CC(O)CC(=O)O (stereo not drawn) [BHB, β-hydroxybutyrate]
% Change in TEER from DMSO (Caco-2 colonocytes; 200 μM + cytokines): + (125%> ≤150%: +)
% Change in TEER from DMSO (Caco-2 colonocytes; 2 mM + cytokines): − (≤125%: −)
IL6 % DMSO control [1]: = ((=) 90%≥ <110% DMSO)
ILβ % DMSO control [1]: − ((−) ≥110% DMSO;)
TNFα % of DMSO control [1]: − ((−) ≥110% DMSO;)

C[C@@H](O)CCO [(R)-1,3-Butanediol, (3R)-butane-1,3-diol]
Cell viability % DMSO (naïve CD4+ T cells; 100 uM): = (90%≥ ≤110%: =)
Cell viability % DMSO (naïve CD4+ T cells; 0.5 mM): = (90%≥ ≤110%: =)
activity at 500 µM (naïve CD4+ T cells; Homo sapiens, CD4+ T, 144 h, 0.5 mM, read-out: Treg induction % DMSO): 90 to 110%
activity at 500 µM (Mouse myocyte; 0.5 mM): 70 to 90%
Insulin Resistant % DMSO (glucose uptake) ([2]; 100 μM): = (50%> ≤110%: =)
Insulin Resistant % DMSO (glucose uptake) ([2]; 500 μM): = (50%> ≤110%: =)
activity at 100 µM (Mouse 3T3-L1 cells; 100 μM): 50 to 70%
activity at 500 µM (Mouse 3T3-L1 cells; 0.5 mM): 50 to 70%
Insulin Sensitive % DMSO (glucose uptake) ([3]; 100 μM): = (50%> ≤110%: =)
Insulin Sensitive % DMSO (glucose uptake) ([3]; 500 μM): ++ (140%≥ ≤200%: ++)
insulin-mediated glucose uptake ([3]; insulin sensitive model, compared to DMSO): significantly enhanced insulin-mediated glucose uptake

CCCC(=O)O [Butyrate, butyrate]
% Change in TEER from DMSO (Caco-2 colonocytes; 1 mM + cytokines): − (≤125%: −)
% Change in TEER from DMSO (Caco-2 colonocytes; 3 mM + cytokines): − (≤125%: −)
% Change in TEER from DMSO (Caco-2 colonocytes; 5 mM + cytokines): ++ (150%≥ ≤200%: ++)
IL6 % DMSO control [1]: + ((+) 50%≥ <90% DMSO)
ILβ % DMSO control [1]: − ((−) ≥110% DMSO;)
TNFα % of DMSO control [1]: ++ ((++) <50% DMSO)
Insulin Resistant % DMSO (glucose uptake) ([2]; 3 mM): + (110%> ≤140%: +)
Insulin Sensitive % DMSO (glucose uptake) ([3]; 3 mM): − (<50%: −)
